Test results from patent publication US10258041B2, “Substituted pyrazolylpyrazole derivative and use of same as herbicide” (KYOYU AGRI CO., LTD., priority 2015, dated 2019).

How the values were obtained:
Assay type in all cases: in vivo
Galinsoga parviflora = test: Weed foliar treatment test (Test 4, higher leaf stage); conditions: 10 g a.i./10a; foliar spray at 4.0 to 5.0 leaf stage of Digitaria ciliaris; 20 days, 25° C.
Protocol: (§1) Evaluation of herbicidal efficacy was carried out by comparing growth inhibition rate (%) with an untreated group, while evaluation of chemical damage was carried out by comparing growth inhibition rate (%) with the state of a complete eradication group, and were evaluated at 11 levels indicated below. • 0 (exponent): 0% to less than 10% (growth inhibition rate) • 1: 10% to less than 20% • 2: 20% to less than 30% • 3: 30% to less than 40% • 4: 40% to less than 50% • 5: 50% to less than 60% • 6: 60% to less than 70% • 7: 70% to less than 80% • 8: 80% to less than 90% • 9: 90% to less than 100% • 10: 100% Field soil was filled into a 1/4500 are pot followed by seeding with Digitaria ciliaris and Galinsoga parviflora, covering with soil and cultivating in a glass greenhouse at an average atmospheric temperature of 25° C. Wettable powders of Target Compound (I) shown, in Table 1 prepared in compliance with the preparation examples were diluted with water to the prescribed amount of chemical and uniformly sprayed onto the weeds using 100 liters of sprayed water per 10 are when Digitaria ciliaris had grown to the 4.0 to 5.0 leaf stage (plant height: 10 cm to 15 cm). After treating for 20 days in a glass greenhouse at an average atmospheric temperature of 25° C., the herbicidal efficacy thereof was investigated. Evaluation of herbicidal efficacy was carried out in the same manner as the above-mentioned Test Example 1.

Digitaria ciliaris [1] = test: as above; conditions: 10 g a.i./10a; foliar spray at 4.0 to 5.0 leaf stage of Digitaria ciliaris (plant height 10 cm to 15 cm); 20 days, 25° C.
Protocol: as §1

Amaranthus retroflexus [2] = test: Weed foliar treatment test (Test 3); conditions: foliar spray at 1.0 to 2.0 leaf stage of Digitaria ciliaris, 3 weeks, 25° C.
Protocol: (§2) Evaluation of herbicidal efficacy was carried out by comparing growth inhibition rate (%) with an untreated group, while evaluation of chemical damage was carried out by comparing growth inhibition rate (%) with the state of a complete eradication group, and were evaluated at 11 levels indicated below. • 0 (exponent): 0% to less than 10% (growth inhibition rate) • 1: 10% to less than 20% • 2: 20% to less than 30% • 3: 30% to less than 40% • 4: 40% to less than 50% • 5: 50% to less than 60% • 6: 60% to less than 70% • 7: 70% to less than 80% • 8: 80% to less than 90% • 9: 90% to less than 100% • 10: 100% Soil was filled into a 1/6000 are pot followed by seeding with Digitaria ciliaris, Chenopodium album and Amaranthus retroflexus, covering with soil, and cultivating in a glass greenhouse at an average atmospheric temperature of 25° C. Wettable powders of Target Compound (I) shown in Table 1 prepared in compliance with the preparation examples were diluted with water to the prescribed amount of chemical and uniformly sprayed onto the weeds using 150 liters of sprayed water per 10 are when Digitaria ciliaris had grown to the 1.0 to 2.0 leaf stage. After treating for 3 weeks in a glass greenhouse at an average atmospheric temperature of 25° C., the herbicidal efficacy thereof was investigated. Evaluation of herbicidal efficacy was carried out in the same manner as the above-mentioned Test Example 1.

Chenopodium album [3] = test: Weed foliar treatment test (Test 3); conditions: foliar spray at 1.0 to 2.0 leaf stage of Digitaria ciliaris, 3 weeks, 25° C.
Protocol: as §2

Digitaria ciliaris [4] = test: Weed foliar treatment test (Test 3); conditions: foliar spray at 1.0 to 2.0 leaf stage of Digitaria ciliaris, 3 weeks, 25° C.
Protocol: as §2

Scirpus juncoides = test: Paddy herbicidal activity test; conditions: irrigated pot, treated at 3.5 leaf stage of Echinochloa crus-galli, 30 days
Protocol: (§3) Rice paddy soil was filled into a 1/10000 are pot followed by the addition of suitable amounts of water and chemical fertilizer, kneading, seeding with Echinochloa crus-galli, Monochoria vaginalis and Scirpus juncoides and maintaining in an irrigated state at a water depth of 3 cm. Wettable powders of Target Compound (I) shown in Table 1 prepared in compliance with the preparation examples were diluted with a suitable amount of water, rice plants in the 2.0 leaf stage were transplanted during 3.5 leaf stage of Echinochloa crus-galli, and treated by dropping in chemical in the prescribed amount per 10 are using a pipette. After treating for 30 days in a glass greenhouse at an average atmospheric temperature of […], the herbicidal efficacy thereof was investigated. Evaluation of herbicidal efficacy was carried out by comparing growth inhibition rate (%) with an untreated group, while evaluation of chemical damage was carried out by comparing growth inhibition rate (%) with the state of a complete eradication group, and were evaluated at 11 levels indicated below. • 0 (exponent): 0% to less than 10% (growth inhibition rate) • 1: 10% to less than 20% • 2: 20% to less than 30% • 3: 30% to less than 40% • 4: 40% to less than 50% • 5: 50% to less than 60% • 6: 60% to less than 70% • 7: 70% to less than 80% • 8: 80% to less than 90% • 9: 90% to less than 100% • 10: 100%

Echinochloa crus-galli = test: Paddy herbicidal activity test; conditions: irrigated pot, treated at 3.5 leaf stage of Echinochloa crus-galli, 30 days
Protocol: as §3

Monochoria vaginalis = test: Paddy herbicidal activity test; conditions: irrigated pot, treated at 3.5 leaf stage of Echinochloa crus-galli, 30 days
Protocol: as §3

Oryza sativa = test: Paddy herbicidal activity test, chemical damage to transplanted rice; conditions: rice transplanted in 2.0 leaf stage, 30 days
Protocol: as §3

Amaranthus retroflexus [5] = test: Farming soil treatment test; conditions: soil surface spray prior to weed growth, 30 days, 30° C.
Protocol: (§4) Evaluation of herbicidal efficacy was carried out by comparing growth inhibition rate (%) with an untreated group, while evaluation of chemical damage was carried out by comparing growth inhibition rate (%) with the state of a complete eradication group, and were evaluated at 11 levels indicated below. • 0 (exponent): 0% to less than 10% (growth inhibition rate) • 1: 10% to less than 20% • 2: 20% to less than 30% • 3: 30% to less than 40% • 4: 40% to less than 50% • 5: 50% to less than 60% • 6: 60% to less than 70% • 7: 70% to less than 80% • 8: 80% to less than 90% • 9: 90% to less than 100% • 10: 100% Field soil was filled into a 1/6000 are pot followed by seeding with Digitaria ciliaris, Chenopodium album and Amraranthus retroflexus and covering with soil. Wettable powders of compounds of formula (I) shown in Table 1 prepared in compliance with the preparation examples were diluted with water to the prescribed amount of chemical and uniformly sprayed onto each soil surface layer using 100 liters of sprayed water per 10 are prior to weed growth following seeding. After treating for 30 days in a glass greenhouse at an average atmospheric temperature of 30° C., the herbicidal efficacy thereof was investigated. Evaluation of herbicidal efficacy was carried out in the same manner as the above-mentioned Test Example 1,

Chenopodium album [6] = test: Farming soil treatment test; conditions: soil surface spray prior to weed growth, 30 days, 30° C.
Protocol: as §4

Digitaria ciliaris [7] = test: Farming soil treatment test; conditions: soil surface spray prior to weed growth, 30 days, 30° C.
Protocol: as §4

N#Cc1cnn(-c2nn3c(c2Cl)CCCC3)c1NC(=O)CCl [Control Agent 1.9]
herbicidal efficacy (growth inhibition rate level), Galinsoga parviflora (Galinsoga parviflora): 5 (5: 50% to less than 60%)
herbicidal efficacy (growth inhibition rate level), Digitaria ciliaris (Digitaria ciliaris [1]): 1 (1: 10% to less than 20%)
herbicidal efficacy (growth inhibition rate level), Amaranthus retroflexus (Amaranthus retroflexus [2]; 5 g a.i./10a): 6 (6: 60% to less than 70%)
herbicidal efficacy (growth inhibition rate level), Amaranthus retroflexus (Amaranthus retroflexus [2]; 10 g a.i./10a): 6 (6: 60% to less than 70%)
herbicidal efficacy (growth inhibition rate level), Chenopodium album (Chenopodium album [3]; 5 g a.i./10a): 1 (1: 10% to less than 20%)
herbicidal efficacy (growth inhibition rate level), Chenopodium album (Chenopodium album [3]; 10 g a.i./10a): 2 (2: 20% to less than 30%)
herbicidal efficacy (growth inhibition rate level), Digitaria ciliaris (Digitaria ciliaris [4]; 5 g a.i./10a): 2 (2: 20% to less than 30%)
herbicidal efficacy (growth inhibition rate level), Digitaria ciliaris (Digitaria ciliaris [4]; 10 g a.i./10a): 2 (2: 20% to less than 30%)
herbicidal efficacy (growth inhibition rate level), Scirpus juncoides (Scirpus juncoides; 1 g a.i./10a): 0 (0 (exponent): 0% to less than 10% (growth inhibition rate))
herbicidal efficacy (growth inhibition rate level), Scirpus juncoides (Scirpus juncoides; 5 g a.i./10a): 1 (1: 10% to less than 20%)
herbicidal efficacy (growth inhibition rate level), Echinochloa crus-galli (Echinochloa crus-galli; 1 g a.i./10a): 2 (2: 20% to less than 30%)
herbicidal efficacy (growth inhibition rate level), Echinochloa crus-galli (Echinochloa crus-galli; 5 g a.i./10a): 2 (2: 20% to less than 30%)
herbicidal efficacy (growth inhibition rate level), Monochoria vaginalis (Monochoria vaginalis; 1 g a.i./10a): 2 (2: 20% to less than 30%)
herbicidal efficacy (growth inhibition rate level), Monochoria vaginalis (Monochoria vaginalis; 5 g a.i./10a): 2 (2: 20% to less than 30%)
chemical damage (growth inhibition rate level), Oryza sativa (Oryza sativa; 1 g a.i./10a): 1 (1: 10% to less than 20%)
chemical damage (growth inhibition rate level), Oryza sativa (Oryza sativa; 5 g a.i./10a): 1 (1: 10% to less than 20%)
herbicidal efficacy (growth inhibition rate level), Amaranthus retroflexus (Amaranthus retroflexus [5]; 5 g a.i./10a): 5 (5: 50% to less than 60%)
herbicidal efficacy (growth inhibition rate level), Amaranthus retroflexus (Amaranthus retroflexus [5]; 10 g a.i./10a): 6 (6: 60% to less than 70%)
herbicidal efficacy (growth inhibition rate level), Chenopodium album (Chenopodium album [6]; 5 g a.i./10a): 1 (1: 10% to less than 20%)
herbicidal efficacy (growth inhibition rate level), Chenopodium album (Chenopodium album [6]; 10 g a.i./10a): 2 (2: 20% to less than 30%)
herbicidal efficacy (growth inhibition rate level), Digitaria ciliaris (Digitaria ciliaris [7]; 5 g a.i./10a): 0 (0 (exponent): 0% to less than 10% (growth inhibition rate))
herbicidal efficacy (growth inhibition rate level), Digitaria ciliaris (Digitaria ciliaris [7]; 10 g a.i./10a): 1 (1: 10% to less than 20%)

N#Cc1cnn(-c2nn3c(c2Cl)CCCC3)c1NC(=O)CCCl [Control Agent 1.36]
herbicidal efficacy (growth inhibition rate level), Galinsoga parviflora (Galinsoga parviflora): 5 (5: 50% to less than 60%)
herbicidal efficacy (growth inhibition rate level), Digitaria ciliaris (Digitaria ciliaris [1]): 1 (1: 10% to less than 20%)
herbicidal efficacy (growth inhibition rate level), Amaranthus retroflexus (Amaranthus retroflexus [2]; 5 g a.i./10a): 5 (5: 50% to less than 60%)
herbicidal efficacy (growth inhibition rate level), Amaranthus retroflexus (Amaranthus retroflexus [2]; 10 g a.i./10a): 6 (6: 60% to less than 70%)
herbicidal efficacy (growth inhibition rate level), Chenopodium album (Chenopodium album [3]; 5 g a.i./10a): 4 (4: 40% to less than 50%)
herbicidal efficacy (growth inhibition rate level), Chenopodium album (Chenopodium album [3]; 10 g a.i./10a): 4 (4: 40% to less than 50%)
herbicidal efficacy (growth inhibition rate level), Digitaria ciliaris (Digitaria ciliaris [4]; 5 g a.i./10a): 2 (2: 20% to less than 30%)
herbicidal efficacy (growth inhibition rate level), Digitaria ciliaris (Digitaria ciliaris [4]; 10 g a.i./10a): 3 (3: 30% to less than 40%)
herbicidal efficacy (growth inhibition rate level), Scirpus juncoides (Scirpus juncoides; 1 g a.i./10a): 1 (1: 10% to less than 20%)
herbicidal efficacy (growth inhibition rate level), Scirpus juncoides (Scirpus juncoides; 5 g a.i./10a): 3 (3: 30% to less than 40%)
herbicidal efficacy (growth inhibition rate level), Echinochloa crus-galli (Echinochloa crus-galli; 1 g a.i./10a): 2 (2: 20% to less than 30%)
herbicidal efficacy (growth inhibition rate level), Echinochloa crus-galli (Echinochloa crus-galli; 5 g a.i./10a): 4 (4: 40% to less than 50%)
herbicidal efficacy (growth inhibition rate level), Monochoria vaginalis (Monochoria vaginalis; 1 g a.i./10a): 3 (3: 30% to less than 40%)
herbicidal efficacy (growth inhibition rate level), Monochoria vaginalis (Monochoria vaginalis; 5 g a.i./10a): 4 (4: 40% to less than 50%)
chemical damage (growth inhibition rate level), Oryza sativa (Oryza sativa; 1 g a.i./10a): 2 (2: 20% to less than 30%)
chemical damage (growth inhibition rate level), Oryza sativa (Oryza sativa; 5 g a.i./10a): 3 (3: 30% to less than 40%)
herbicidal efficacy (growth inhibition rate level), Amaranthus retroflexus (Amaranthus retroflexus [5]; 5 g a.i./10a): 4 (4: 40% to less than 50%)
herbicidal efficacy (growth inhibition rate level), Amaranthus retroflexus (Amaranthus retroflexus [5]; 10 g a.i./10a): 5 (5: 50% to less than 60%)
herbicidal efficacy (growth inhibition rate level), Chenopodium album (Chenopodium album [6]; 5 g a.i./10a): 4 (4: 40% to less than 50%)
herbicidal efficacy (growth inhibition rate level), Chenopodium album (Chenopodium album [6]; 10 g a.i./10a): 4 (4: 40% to less than 50%)
herbicidal efficacy (growth inhibition rate level), Digitaria ciliaris (Digitaria ciliaris [7]; 5 g a.i./10a): 3 (3: 30% to less than 40%)
herbicidal efficacy (growth inhibition rate level), Digitaria ciliaris (Digitaria ciliaris [7]; 10 g a.i./10a): 4 (4: 40% to less than 50%)
